Assay results as given in patent publication US9044403B2, “Sporicidal hand sanitizing lotion” (Medivators Inc., priority 2008, dated 2015).

Assay: Fragrance screen for chemical compatibility with a PAA solution
Format: physicochemical
Method: A number of fragrances were tested with a PAA solution to screen for chemical compatibility. […] Additionally, “Blackberry Sage Tea” fragrance in combination with the vinegar-like order from the PAA in the sample was not appealing to volunteers who agreed to sample the sample lotion formulation.

Structure (SMILES) | Time within which the fragrance degrades PAA
CC/C=C\CCO [cis-3-hexen-1-ol] | 3 to 5 days
CC(=O)OCCC(C)CCC=C(C)C (stereo not drawn) [citronellyl acetate] | 3 to 5 days
CC(=O)OC/C=C(/C)CCC=C(C)C [neryl acetate] | 3 to 5 days
